Measurements as given in US20240342138A1, “MICROTUBULE TARGETING AGENTS” (BPGbio, Inc., priority 2023, published 2024).

Legend:
[1] = system: patient-derived organoids (PDOs); assay: Viability of patient-derived organoids of multiple tumor types (CellTiter-Glo, 5 days); assay type: cell-based, human
Method: PDOs were treated with Compound 1 or controls (vehicle control—0.1% DMSO, positive control—10% DMSO) for 5 days. Viability was assessed using the CellTiter-Glo® assay. IC50 and maximal (max) inhibition values were extrapolated from the viability curves. Exemplars of models deemed to be highly responsive (>60% max inhibition; A), responsive (40-60% max inhibition; B), and non-responsive (<40% max inhibition; C) to Compound 1 are shown. Summary of all models tested (D); NR (No Regression, ambiguous nonlinear regression curves or R2<0.65) and NA (Not Applicable, ambiguous maximum inhibition). Compiled data of N=4 replicates.
Potency of Compound 1 was evaluated in a panel of patient-derived organoids (PDOs) representative of multiple tumor types.
• 1. Cryopreserved samples (200-300 mg or more depending on study design) were prepared as described below. • 2. The collected tumors were dissociated manually (using a tumor mincing process previously developed) or using the Gentle MACS Dissociator and human Tumor Dissociation Kit (Miltenyi). After preparation, tumor fragments were cultured in DMEM+10% FBS+1× antibiotic/antimycotic (“anti-anti”) plus 1:500 Primocin antimicrobial agent for up to 7 days before filtering out large fragments (using a 500 μm filter followed by 200 μm filters). • 3. Flow-through was cultured in: Cell-Tak coated low volume flat-bottom 384-well assay plates. • 4. 10× concentrations of test agent (or DMSO as vehicle) was added to media in volumes that will vary depending on culturing conditions. • 5. Each group had quadruplicate wells, including 0.1% DMSO (final as vehicle) and 10% DMSO as positive control. • 6. PBS was plated in the perimeter wells to avoid edge-effect artifacts. • 7. Cells were treated for 5 days and viability read via Cell Titer Glo. Viability was quantitatively assessed via Cell Titer Glo at Day 0 (baseline), Day 6 (baseline), and Day 6 (compound treatment-full dose response). […]

COLO205 tumors = assay: Colorectal cancer xenograft model; assay type: in vivo, nude mice
Method: FIG. 11A-11E show the efficacy of Compound 1 in a colorectal cancer xenograft model (COLO205). A) In vitro potency of Compound 1 in COLO205 cells as evaluated by ATPlite 1Step™ Perkin Elmer (performed by NTRC Oncolines). B) COLO205 cells were implanted subcutaneously in nude mice and tumors were allowed to grow to a volume of 210 mm3 followed by randomization of animals into three (3) groups (vehicle control, 75 mg/kg, 150 mg/kg Compound 1) with 12 animals per group. A Compound 1 solid dispersion was prepared prior to each dosing and administered by oral gavage two times a day (BID). Mean tumor volume of each group over time and the growth of tumor in each individual animal was graphed. For each individual animal of […] group TGI (%) was calculated based on the tumor growth inhibition of individual tumor at each given day of the study compared to the average of the group for that given day of the study. P-values were calculated using two-tailed distribution and two-sample equal variance (homoscedastic) for each group treated with Compound 1 for each given day of the study in reference to vehicle control. NS p>0.05; *p≤0.05; **p≤0.01; ***p p≤0.001; **** p≤0.0001. C) Plasma and tumor tissues from vehicle (n=11), 75 mg/kg (n=12), and 150 mg/kg (n=11) groups were harvested at the end of the study. The concentration of Compound 1 in the plasma or tumor tissue was plotted as a column plot (Average t SEM) or Scatter Plot with Median. D) Tumor tissues from vehicle (n=11), 75 mg/kg (n=12) and 150 mg/kg (n=11) groups were harvested at the end of the study when each animal was sacrificed. The level of two biomarkers, pHH3 and CCNB1 in each tissue was measured and graphed as the Min-to-Max plot and scatter plot of the level of each biomarker. The line in the scatter plot indicates the group mean. E) Body weight of each individual animal was measured on each day of the study and graphed using Graphpad Prism.
Anti-tumor efficacy of Compound 1 was evaluated against three (3) different preclinical oncology mice models of colorectal cancer, prostate cancer, and lung adenocarcinoma (see Table 5 below). For this purpose, an oral formulation of Compound 1 was used.
COLO205 is a colorectal adenocarcinoma (Dukes' Type D) cell line of epithelial origin isolated from human colon. COLO205 is a model that is well validated in the cancer field for in vivo efficacy evaluation of oncology therapeutics. Nude mice were implanted subcutaneously with COLO205 cells and tumors were grown to an average tumor volume of 113 mm^3 followed by randomization into three (3) groups consisting of vehicle control, 75 mg/kg and 150 mg/kg Compound 1 (12 animals per group). A Compound 1 solid dispersion was administered by oral gavage two times a day (BID). Originally, the study was planned for 28 days of dosing; however, several animals left the study after 17 days of dosing due to tumor size reaching the limit of 2000 mm^3. Therefore, only the data for the first 17 days of dosing were used for the analysis. Additionally, one animal from vehicle group and one animal from 150 mg/kg group left the study prior to day 17 and were therefore removed from the analysis. The percentage of tumor growth inhibition (TGI %) was calculated for each individual animal.

## COc1ccccc1-c1nc(CNC(=O)c2ccccc2OC(F)F)n[nH]1 [Compound 1, 2-(difluoromethoxy)-N-[[5-(2-methoxyphenyl)-1H-1,2,4-triazol-3-yl]methyl]benzamide]
[1]; Glioblastoma multiforme, SCLC, ovarian, endometrial, breast, prostate cancer, renal cell carcinoma
  Response of PDO models (max inhibition class): responsive (responsive (40-60% max inhibition))
[1]; colorectal cancer (FIG. 7C)
  Response of PDO models (max inhibition class): non-responsive (non-responsive (<40% max inhibition))
[1]; endometrial cancer, SCLC, sarcoma, breast cancer, NSCLC, ovarian cancer
  Response of PDO models (max inhibition class): highly responsive (highly responsive (>60% max inhibition))
COLO205 tumors; 75 mg/kg BID oral, day 17
  TGI (%): 20.13%
COLO205 tumors; 150 mg/kg BID oral, day 17
  Maximum TGI (%), end of the study: 35.38%
COLO205 tumors; 150 mg/kg group, FIG. 11E
  Body weight: no significant body weight change by the end of the study
COLO205 tumors; 75 vs 150 mg/kg, end of study, FIG. 11C
  Level of Compound 1 in plasma and tumor tissue: dose-dependent elevation
COLO205 tumors; markers of M phase arrest, FIG. 11D
  cyclin B1 and phospho Histone H3 (pHH3) in tumor tissue: increase
